{"source": "patent US6528685B2", "about": "(Teva Pharmaceutical Industries, Ltd., priority 1994, dated 2003)", "key": {"[1]": {"system": "Mechanically dissociated Neonatal Rat Cerebellum", "experiment": "Reversal of NMDA induced cell death, neonatal rat cerebellum cultures", "assay_type": "cell-based", "details": "for SURVIVING CELL IN CULTURE: relative to control (100%); for PERCENT PROTECTION: cell survival minus NMDA effect (30%); for EFFECTIVE PROTECTION: percent protection x 100/70", "protocol": "(§1) The cerebellum was aseptically dissociated from 6 or 7-day old rat pups and placed in a 15 ml sterile plastic conical tube containing 3 ml of Dulbecco's modified Eagle's medium (DMEM) with a high glucose concentration ([…]) and 2 mM (v/v) L-glutamine and an antibiotic antimitotic mixture. The cerebella were then dissociated after 20-25 passages through a sterile 13 gauge, 10 cm long stainless steel needle attached to a 5 ml syringe with an inserted 45 micrometer pore nylon sieve. The dissociated cells were centrifuged at 200 g for 5 minutes. The supernatant was discarded and the cells resuspended in medium enriched with 15% (v/v) heat inactivated fetal calf serum. Cell viability was determined by the tryptan blue exclusion test.\n(§2) Cells were plated at a density of 200/mm^2 on poly-L-lysine coated surfaces. Poly-L-lysine coated glass coverslips were prepared at least one hour in advance of plating by immersing sterile coverslips in sterile distilled water solution containing 15 microgram/ml poly-L-lysine, and washing in sterile water just prior to use. The plated cells were covered with enriched medium and incubated at 37° C. in an atmosphere of 5% CO2 in air and 97% humidity. After three days in culture, the media was replaced with media containing the desired test compound. Each test compound was tested in duplicate. Toxic-dose response was determined for each compound.\nFour groups were run in each set of experiments;\nI. Control, consisting of enriched media alone,\nII. N-methyl-D-aspartate (NMDA, 1 mM for 3 hours) as the cytotoxic challenge,\nIII. Test compound plus NMDA, and\nIV. Positive control, spermine(0.01 micromoles) plus NMDA.\nNerve cell survival was evaluated by phase contrast microscopy and tryptan blue staining after 24 hours.\nSurviving cells in culture are measured relative to control (100%) as described above. Percent protection is the Cell Survival for the test compound minus the NMDA effect. Thus, maximal protection is 100% minus 30% NMDA effect i.e. 70%. The Effective Protection was calculated as the percent of the Percent Protection (X) divided by the maximal protection value (e.g. X×100/70)."}, "mongolian gerbils": {"system": "mongolian gerbils", "experiment": "Global brain ischemia in gerbils", "assay_type": "in vivo, mongolian gerbil", "details": "3 injections, fraction of hippocampi protected from ischemia, 14 days post-ischemia", "protocol": "Male mongolian gerbils, aged 2.5-5 months, housed 4-8 in a cage, were supplied freely with food and water and maintained at 24° C. with a 12 hour day/night cycle. […] Each artery was clamped for 5 minutes with aneurysm clips to produce global brain ischemia. The anesthesia was discontinued upon clamping. After 5 minutes the clamps were removed and the wound closed with skin clips.\nFor treatment, the test compound or vehicle were injected intra-peritoneally (ip) in a volume of 50 microliters of solvent per 10 g body weight. The first injection was given two minutes after clamp removal, and thereafter daily for the next 2 post-operative days (total of 3 injections).\nSeven groups each of 4-8 animals were compared:\nV. Ischemia—Test compound treated, one sub-group per concentration tested,\nVI. Ischemia and pentobarbital (40 mg/kg) as positive control).\nAnalysis of neuronal damage was performed 14 days post-ischemia by counting pyramidal neurons throughout the CA1 layer of the anterior hippocampus in […] thick (paraffin) coronal brain sections stained with hematoxylin and erosin.\nPercent Protection values represent the fraction of hippocampi protected from ischemia in a group of animals treated with the stated dose of compound."}, "mice [2]": {"system": "mice", "experiment": "Maximal electroshock (MES) model, mice", "details": "mice, intraperitoneal (i.p.) administration"}, "rats [3]": {"system": "rats", "experiment": "Neurotoxicity in rats, positional sense test and gait stance test", "details": "rats p.o.; positional sense test and gait stance test", "protocol": "(§3) Neurotoxicity of the claimed agents was also assessed in mice (i.p. administration) by the rotorod ataxia test and/or in rats (p.o. administration) by positional sense test and gait stance test. […] The term quantitating the neurotoxicity is the medial neurological toxic dose (TD50), was determined in the above tests."}, "mice [4]": {"system": "mice", "details": "mice i.p."}, "mice [5]": {"system": "mice", "experiment": "Neurotoxicity in mice, rotorod ataxia test", "details": "mice i.p.; rotorod ataxia test", "protocol": "as §3"}, "rats [6]": {"system": "rats", "details": "rats p.o."}, "rats [7]": {"system": "rats", "experiment": "Maximal electroshock (MES) model, rats", "details": "rats, oral (p.o.) administration; median effective dose"}, "[8]": {"system": "Mechanically dissociated Neonatal Rat Cerebellum", "experiment": "Enhancement of cell survival, neonatal rat cerebellum cultures without NMDA", "assay_type": "cell-based", "details": "0.005 μM; 24 hours after addition, fourth day; percentage of control cells; no NMDA", "protocol": "as §1, with “The supernatant was discarded and the cells resuspended in medium enriched with 15% (v/v) heat inactivated fetal calf serum.” left out\nas §2, with “The plated cells were covered with enriched medium and incubated at 37° C. in an atmosphere of 5% CO2 in air and 97% humidity.” left out\nCell cultures were grown as described above but in the absence of NMDA and after 3 days a dose of test compound was added. Cell survival was monitored as described above."}}, "note": "Counter-ions that a name gives are not always drawn.", "data": [{"smiles": "NC(=O)CN[C@H]1CCc2ccccc21", "note": "[Compound 2, (S)-N-(2-Acetamido)-1-aminoindan.HCl]", "values": [{"measurement": "SURVIVING CELL IN CULTURE", "setting": "[1]; 0.005 μM + NMDA 1 mM 3 hours", "result": 56, "unit": "%"}, {"measurement": "PERCENT PROTECTION", "setting": "[1]; 0.005 μM + NMDA", "result": 26, "unit": "%"}, {"measurement": "EFFECTIVE PROTECTION", "setting": "[1]; 0.005 μM + NMDA", "result": 37, "unit": "%"}, {"measurement": "SURVIVING CELL IN CULTURE", "setting": "[1]; 0.010 μM + NMDA 1 mM 3 hours", "result": 51, "unit": "%"}, {"measurement": "PERCENT PROTECTION", "setting": "[1]; 0.010 μM + NMDA", "result": 21, "unit": "%"}, {"measurement": "EFFECTIVE PROTECTION", "setting": "[1]; 0.010 μM + NMDA", "result": 30, "unit": "%"}, {"measurement": "SURVIVING CELL IN CULTURE", "setting": "[1]; 0.100 μM + NMDA 1 mM 3 hours", "result": 33, "unit": "%"}, {"measurement": "PERCENT PROTECTION", "setting": "[1]; 0.100 μM + NMDA", "result": 3, "unit": "%"}, {"measurement": "EFFECTIVE PROTECTION", "setting": "[1]; 0.100 μM + NMDA", "result": 4, "unit": "%"}, {"measurement": "PERCENT PROTECTION", "setting": "mongolian gerbils; 0.1 mg/kg ip", "result": 0, "unit": "%"}, {"measurement": "PERCENT PROTECTION", "setting": "mongolian gerbils; 1.0 mg/kg ip", "result": 50.0, "unit": "%"}, {"measurement": "PERCENT PROTECTION", "setting": "mongolian gerbils; 10.0 mg/kg ip", "result": 37.5, "unit": "%"}, {"measurement": "MICE MES ED50", "setting": "mice [2]", "result": 39, "unit": "mg/kg"}, {"measurement": "RATS TD50", "setting": "rats [3]", "result": ">500", "unit": "mg/kg"}, {"measurement": "MICE scMet ED50 PI", "setting": "mice [4]", "result": ">150", "unit": "mg/kg"}, {"measurement": "MICE TD50", "setting": "mice [5]", "result": 137, "unit": "mg/kg"}, {"measurement": "RATS scMet ED50 PI", "setting": "rats [6]", "result": ">250", "unit": "mg/kg"}, {"measurement": "RATS MES 50", "setting": "rats [7]", "result": 21, "unit": "mg/kg"}, {"measurement": "% ENHANCED SURVIVAL", "setting": "[8]", "result": 140, "unit": "%"}]}]}
